According to US4425435A, “Cholesterol oxidase and process for producing same” (Takara Shuzo Co., Ltd., priority 1980, dated 1984):

test system: cholesterol oxidase; assay: Substrate specificity: hydrogen peroxide decomposed with peroxidase, chromogen colour; type: biochemical, Basidiomycetes; conditions: hydrogen peroxide liberated from dehydrogenation of the 3β-position

Molecule | enzyme acts on the sterol (substrate specificity)
C[C@]12CC[C@H](O)CC1=CC[C@@H]1[C@@H]2CC[C@]2(C)C(=O)CC[C@@H]12 [dehydroepiandrosterone] | act on
CC[C@H](CC[C@@H](C)[C@H]1CC[C@H]2[C@@H]3CC=C4C[C@@H](O)CC[C@]4(C)[C@H]3CC[C@]12C)C(C)C [β-cytosterol] | act on
CC(C)CCC[C@@H](C)[C@H]1CC[C@H]2[C@@H]3CC=C4C[C@@H](O)CC[C@]4(C)[C@H]3CC[C@]12C [cholesterol] | act on
CC(C)[C@@H](C)/C=C/[C@@H](C)[C@H]1CC[C@H]2C3=CC=C4C[C@@H](O)CC[C@]4(C)[C@H]3CC[C@]12C [ergosterol] | act on
CC[C@H](/C=C/[C@@H](C)[C@H]1CC[C@H]2[C@@H]3CC=C4C[C@@H](O)CC[C@]4(C)[C@H]3CC[C@]12C)C(C)C [stigmasterol] | act on
CC(C)[C@H](C)CC[C@@H](C)[C@H]1CC[C@H]2[C@@H]3CC=C4C[C@@H](O)CC[C@]4(C)[C@H]3CC[C@]12C [campesterol] | act on
CC(=O)[C@H]1CC[C@H]2[C@@H]3CC=C4C[C@@H](O)CC[C@]4(C)[C@H]3CC[C@]12C [pregnenolone] | act on
C[C@@H](O)[C@H]1CC[C@H]2[C@@H]3CC[C@H]4C[C@@H](O)CC[C@]4(C)[C@H]3CC[C@]12C [5α-pregnan-3β,20β-diol] | act on
CC(C)CCC[C@@H](C)[C@H]1CC[C@H]2[C@@H]3CC[C@H]4C[C@@H](O)CC[C@]4(C)[C@H]3CC[C@]12C [β-cholestanol] | act on

test system: cholesterol oxidase; assay: Effect of inhibitors etc. on activity of the present enzymes; type: biochemical, Basidiomycetes; conditions: not given
Method: The enzymatic activity is determined by measurement of the hydrogen peroxide produced by the reaction of the enzyme solution on the substrate cholesterol. The method is based on the sequence of reactions as follows: Thus cholesterol is oxidized by cholesterol oxidase to cholest-5-en-3-one with the evolution of hydrogen peroxide, which couples with 4-aminoantipyrine and phenol in the presence of peroxidase to yield a quinoneimine dye with maximum absorption at 500 nm. To conduct this reaction there is used a reaction mixture, in a final volume of 3.0 ml, composed of 0.1 ml of the enzyme solution, 2 μmoles of cholesterol in 0.1 ml of ethanol, 250 μmoles of phosphate buffer, pH 7.0, 2.46 μmoles of 4-aminoantipyrine, 42 μmoles of phenol, and 24 units of peroxidase obtained from horseradish. The reaction is carried out at 37° C. for 10 minutes with shaking. One unit of cholesterol oxidase activity was defined as the amount of the enzyme which catalyzes the oxidation of 1 μmole of cholesterol per minute at 37° C.

Molecule | inhibition of the enzyme activity | prevention of inhibition caused by Cu^2+ and Hg^2+
c1ccc(-c2ccccn2)nc1 [α,α'-dipyridyl] | not inhibitory | 
c1cnc2c(c1)ccc1cccnc12 [o-phenanthroline] | not inhibitory | 
[Co+2] [Co^2+] | do not inhibit | 
[Mg+2] [Mg^2+] | do not inhibit | 
[Cu+2] [Cu^2+] | markedly inhibited | 
[Ba+2] [Ba^2+] | do not inhibit | 
[Ca+2] [Ca^2+] | do not inhibit | 
[Mn+2] [Mn^2+] | do not inhibit | 
N[C@@H](CCC(=O)N[C@@H](CS)C(=O)NCC(=O)O)C(=O)O [glutathione] |  | almost completely prevented
O=C(O)CN(CCN(CC(=O)O)CC(=O)O)CC(=O)O [EDTA] | not inhibitory | 
[Fe+2] [Fe^2+] | do not inhibit | 
Oc1cccc2cccnc12 [β-hydroxyquinoline] | not inhibitory | 
[Hg+2] [Hg^2+] | markedly inhibited | 
[Ni+2] [Ni^2+] | do not inhibit | 

same assay, conditions: 0.01% of Triton X-100

Molecule | inhibition of the enzyme activity by detergent
Triton X-100 | inhibit almost completely
